Measurements reported in patent publication US9238030B2, “Methods for treatment of diseases and disorders related to transducin β-like protein 1 (TBL1) activity, including myeloproliferative neoplasia and chronic myeloid leukemia” (Beta Cat Pharmaceuticals, LLC, priority 2011, dated 2016).

Columns and labels:
β-catenin [1] = assay: Western blot, proteasomal degradation of β-catenin in AML cells (FIG. 6C); format: cell-based
Method: As one can see, there is less of β-catenin in the AML cells treated with 100 nM of Compound 1 for 8 hours as compared to non-treated AML cells. However, when 10 nM of Carfilzomib (CZ) (a proteasome inhibitor) were administered to the same AML cells, the amount of β-catenin increased.

β-catenin [2] = assay: Western blot of AML cells (FIG. 5C); format: cell-based; details: 100 nM
[3] = test system: CD34+ Primary FLT3-WT AML cells; assay: % of non-viable cells, in vitro apoptosis; format: cell-based; details: various amounts
β-catenin [4] = assay: β-catenin expression and nuclear localization, staining with anti-β-catenin antibody and DAPI; format: cell-based; details: CD34+ Primary FLT3-ITD AML cells, 100 nM, 16 hours
Text: Briefly, CD34+ Primary AML cells, CD34+ Primary FLT3-ITD AML cells and CD34+ Normal cells were stained with anti-β-catenin antibody and DAPI nucleic acid stain. The photographs of these stains were also merged. The photographs of the stained cells are contained in FIG. 5A. As these photographs show, there is a lot of β-catenin expressed in both types of AML cells, and β-catenin is concentrated in nuclei of these cells.
As one can see, compared to control cells (i.e., not treated with Compound 1), this treatment leads to depletion of β-catenin expression and nuclear localization in AML cells.

LAMA-84 cells = assay: Apoptosis of CML cells, annexin V / TOPRO3 flow cytometry; format: cell-based, human
Method: (§1) Briefly, cell lines K562 (human immortalized myelogenous leukemia line) and LAMA-84 (a human leucocytic cell line) were seeded in medium containing 10% FBS and penicillin/streptomycin. After 24 hours, the cells were treated with Compound 1 for 48 hours. At the end of the treatment, the cells were washed with 1×PBS and stained with annexin V and TOPRO3 iodide. The percentages of apoptotic cells were determined by flow cytometry.
(§2) Briefly, the cell lines K562 and LAMA-84, were seeded in medium containing 10% FBS and penicillin/streptomycin. After 24 hours, the cells were treated with either: 1) Compound 1 alone; or 2) in combination with panobinostat and nilotinib for 48 hours. At the end of treatment, cells were washed with 1×PBS and stained with annexin V and TOPRO3 iodide. The percentages of apoptotic cells were determined by flow cytometry.

K562 cells = assay: as above; format: cell-based, human
Method: as §1, §2

[5] = test system: CD34+ CD38-Lin-Primary AML cells; assay: % of non-viable cells, in vitro apoptosis; format: cell-based; details: various amounts
HEL 92.1.7 cells [6] = assay: Mouse model of human MPN, survival; format: in vivo, NOD-SCID mice; details: 15 or 20 mg/Kg b.i.w for three weeks via the tail vein; p<001
Method: Briefly, NOD-SCID mice were sub-lethally irradiated and HEL 92.1.7 cells were infused into the tail vein and MPN established. Mice were treated with 15 or 20 mg/Kg of Compound 1 administered b.i.w for three weeks via the tail vein. Animals were followed for survival after dosing stopped.

OCI-AML3 xenograft cells = assay: Survival of NSG mice with established AML by OCI-AML3 xenograft; format: in vivo; details: three weeks, twice per week tail vein infusion
[7] = test system: β-catenin at target gene promoters; assay: chIP (Chromatin immunoprecipitation) analysis in AML cells; format: cell-based; details: 200 nM, 8 hours
Text: FIG. 7B contains the bar chart of the results of chIP (Chromatin immunoprecipitation) analysis of the effect of treating AML cells with Compound 1.

[8] = test system: β-catenin, c-MYC, Cyclin D1 and p21; assay: Levels of β-catenin, c-MYC, Cyclin D1 and p21 in AML cells (FIG. 7C); format: cell-based; details: 100 nM
Method: FIG. 7C contains the bar chart of the effect of administering 100 nM of Compound 1 to AML cells on levels of β-catenin, c-MYC, Cyclin D1 and p21 (control).

[9] = test system: primary FLT3-ITD AML xenograft; assay: Survival of NSG mice with primary FLT3-ITD AML xenograft; format: in vivo; details: 10 mg/kg, three weeks, twice per week intravenous infusion
Text: Very similar results were obtained in NSG mice with primary FLT3-ITD AML xenograft.

[10] = biological target: T1, binding of β-catenin to TBL1 (Homo sapiens, UniProt O60907); assay: Staining of AML cells with anti-β-catenin antibody, anti-TBL1 antibody and DAPI (FIG. 6B); format: cell-based; details: 100 nM, 16 hours
T1 construct: endogenous in cells; host or cells: AML cells
T1 sequence (O60907 1-577): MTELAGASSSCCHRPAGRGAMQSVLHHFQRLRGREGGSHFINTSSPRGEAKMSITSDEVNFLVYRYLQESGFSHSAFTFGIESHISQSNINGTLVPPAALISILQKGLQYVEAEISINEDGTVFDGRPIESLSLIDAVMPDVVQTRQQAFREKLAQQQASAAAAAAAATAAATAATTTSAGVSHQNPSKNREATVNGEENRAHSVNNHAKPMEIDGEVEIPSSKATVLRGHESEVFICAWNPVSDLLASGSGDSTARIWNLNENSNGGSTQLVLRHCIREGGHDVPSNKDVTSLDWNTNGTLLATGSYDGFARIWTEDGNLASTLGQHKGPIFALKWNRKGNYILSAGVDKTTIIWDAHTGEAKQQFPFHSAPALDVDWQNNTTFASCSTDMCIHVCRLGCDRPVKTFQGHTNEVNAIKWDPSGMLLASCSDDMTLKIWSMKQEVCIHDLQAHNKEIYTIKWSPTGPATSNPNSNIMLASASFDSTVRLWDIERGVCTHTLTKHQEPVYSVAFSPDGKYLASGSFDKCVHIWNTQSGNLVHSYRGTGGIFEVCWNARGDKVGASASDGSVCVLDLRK
Method: FIG. 6B is a series of photographs of stained AML cells with and without prior administration of Compound 1. The top panel depicts control cells (without prior administration of Compound 1) and the bottom panel depicts AML cells following administration of 100 nM of Compound 1 for 16 hours. The cells were stained with the anti-β-catenin antibody, anti-TBL1 antibody, and DAPI nucleic acid stain. The photographs of TBL1 and anti-beta-catenin stains were also merged. […] Compare especially the top right photograph and the bottom right photograph.

[11] = test system: CD34+ Primary FLT3-ITD AML cells; assay: % of non-viable cells, in vitro apoptosis; format: cell-based; details: various amounts
β-catenin [12] = assay: Western blot of primary AML cells (FIG. 6A); format: cell-based; details: 100 nM, 8 hours
UKE1 cells = assay: Apoptosis of MPN cells, annexin V / TOPRO3 flow cytometry; format: cell-based
Method: as §2, with “HEL 92.1.7 (FIGS. 1A” for “K562”, “1C) and UKE1 (FIGS. 1B and 1D)” for “LAMA-84,”, “1;” for “1 alone;”, “2) Compound 1” for “2)”, “TG101209” for “panobinostat and nilotinib”

HEL 92.1.7 cells [13] = assay: as above; format: cell-based
Method: as §2, with “HEL 92.1.7 (FIGS. 1A” for “K562”, “1C) and UKE1 (FIGS. 1B and 1D)” for “LAMA-84,”, “1;” for “1 alone;”, “2) Compound 1” for “2)”, “TG101209” for “panobinostat and nilotinib”

[14] = test system: TCF reporter plasmid (TOP-FLASH); assay: TOP-FLASH and FOP-FLASH luciferase activity in AML cells; format: cell-based; details: 20 nM, 50 nM, and 100 nM
Text: FIG. 7A depicts a bar chart of TOP-FLASH and FOP-FLASH luciferase activity versus treatment of AML cells with different amounts of Compound 1.
TOP-FLASH is a Transfection grade T-cell factor (TCF) reporter plasmid containing two sets (with the second set in the reverse orientation) of three copies of the TCF binding site (wild type) upstream of the Thymidine Kinase (TK) minimal promoter and Luciferase open reading frame.
FOP-FLASH is a reporter plasmid containing mutated TCF binding sites is a negative control.
There was no reduction in FOP-FLASH (negative control).

CD34+ MPN cells = assay: Apoptosis of primary MPN cells isolated from patients; format: cell-based
Method: Briefly, the CD34+ cells isolated from bone marrow of MPN patients, were seeded in medium containing 10% FBS and penicillin/streptomycin. After 24 hours, the cells were treated with Compound 1 for 48 hours or Compound 1 in combination with TG101209. At the end of treatment, cells were washed with 1×PBS and stained with annexin V and TOPRO3 iodide. The percentages of apoptotic cells were determined by flow cytometry. Combination index (CI) was determined using the method of Chou-Talalay (Adv. Enzyme Regul. 22, 27-55).

[15] = in combination with Compound 1, 48 hours

## CC(C)C[C@H](NC(=O)[C@H](CCc1ccccc1)NC(=O)CN1CCOCC1)C(=O)N[C@@H](Cc1ccccc1)C(=O)N[C@@H](CC(C)C)C(=O)[C@@]1(C)CO1 [Carfilzomib, reference compound]
β-catenin [1]; 10 nM Carfilzomib administered to the same AML cells treated with Compound 1
  amount of β-catenin: increased

## C[C@@H]1C[C@H](C)CN(S(=O)(=O)c2ccc3c(c2)C(=NO)c2cc(S(=O)(=O)N4C[C@H](C)C[C@H](C)C4)ccc2C3=NO)C1 [Compound 1]
β-catenin [2]
  Survivin level, Western blot: about the same levels
  TBL1 level, Western blot: about the same levels
  c-MYC level, Western blot: about the same levels
  β-actin level, Western blot: about the same levels
  β-catenin expression, Western blot: less
[3]
  in vitro apoptosis (% of non-viable cells): significantly induced in vitro apoptosis
β-catenin [4]
  β-catenin expression and nuclear localization: depletion
LAMA-84 cells; LAMA-84, 48 hours
  effect at S or G2/M phases of the cell cycle: did not have significant effect
  number of apoptotic cells at G0/G1 phase of the cell cycle: increased
LAMA-84 cells; LAMA-84, Compound 1 alone, 48 hours
  number of apoptotic cells: increased
K562 cells; K562, 48 hours
  effect at S or G2/M phases of the cell cycle: did not have significant effect
  number of apoptotic cells at G0/G1 phase of the cell cycle: increased
K562 cells; K562, Compound 1 alone, 48 hours
  number of apoptotic cells: increased
[5]
  in vitro apoptosis (% of non-viable cells): significantly induced in vitro apoptosis
HEL 92.1.7 cells [6]
  survival compared to the control: significantly improved survival
OCI-AML3 xenograft cells; 5 mg/kg
  survival compared to the control mice: improved survival
OCI-AML3 xenograft cells; 10 mg/kg
  survival compared to the control mice: improved survival
[7]
  amount of promoter DNA of CCND1, chIP: reduced amount
  amount of promoter DNA of c-MYC, chIP: reduced amount
  amount of promoter DNA of survivin, chIP: reduced amount
[8]
  expression of Cyclin D1: lower expression
  expression of c-MYC: lower expression
  expression of p21: much higher expression
  expression of β-catenin: lower expression
[9]
  % survival compared to the control mice: dramatic increase
[10]
  binding of β-catenin to TBL1, staining: severely disrupted
  levels of β-catenin, staining: depleted
[11]
  in vitro apoptosis (% of non-viable cells): significantly induced in vitro apoptosis
β-catenin [1]; AML cells
  fate of β-catenin: proteasomal degradation
β-catenin [1]; AML cells, 100 nM, 8 hours
  β-catenin compared to non-treated AML cells, Western blot: less
β-catenin [12]
  β-catenin, Western blot: less
UKE1 cells; Compound 1 alone, 48 hours
  apoptosis of UKE1 cells: induced apoptosis
HEL 92.1.7 cells [13]; Compound 1 alone, 48 hours
  apoptosis of HEL 92.1.7 cells: induced apoptosis
[14]
  FOP-FLASH luciferase activity (negative control): no reduction
  TOP-FLASH luciferase activity (expression of β-catenin as measured by this luciferase assay): much lower expression
CD34+ MPN cells; 100 nM or above, 48 hours
  apoptosis of CD34+ MPN cells: induced apoptosis

## Cc1cnc(Nc2ccc(N3CCN(C)CC3)cc2)nc1Nc1cccc(S(=O)(=O)NC(C)(C)C)c1 [TG101209, N-tert-butyl-3-[[5-methyl-2-[4-(4-methylpiperazin-1-yl)anilino]pyrimidin-4-yl]amino]benzenesulfonamide, reference compound]
UKE1 cells; [15]
  effect on apoptosis induced by Compound 1, UKE1 cells: enhanced
HEL 92.1.7 cells [13]; [15]
  effect on apoptosis induced by Compound 1, HEL 92.1.7 cells: enhanced
CD34+ MPN cells; in combination with Compound 1
  effect on apoptosis induced by Compound 1, CD34+ MPN cells: enhanced

## Cc1cn(-c2cc(NC(=O)c3ccc(C)c(Nc4nccc(-c5cccnc5)n4)c3)cc(C(F)(F)F)c2)cn1 [nilotinib, reference compound]
LAMA-84 cells; LAMA-84, in combination with Compound 1, 48 hours
  effect on apoptosis induced by Compound 1: enhanced
K562 cells; K562, in combination with Compound 1, 48 hours
  effect on apoptosis induced by Compound 1: enhanced
